Experimental data from paper PMC8880385 (Pharmaceuticals, 2022).
Entries after “also recorded” stand apart in the source; their conditions may differ.

System: Brugia pahangi female worms
Assay: Ex vivo microfilarial release and embryograms of female worms from treated gerbils
Format: in vivo
Details: females from gerbils treated IP 1 mg/kg
Procedure: To test the effects of the compounds on female worm fertility, all surviving female worms were examined ex vivo to quantify the amount of mf released and profile the various stages of embryonic development within the uteri of individual female worms. After necropsy, female worms were incubated in individual wells of a 24-well plate with 2 mL Brugia culture media at 37 °C and 5% CO2. After 24 h, the number of mf released by each adult female was determined by counting the mf in a 0.5 mL sample of the media and multiplying by 4 to calculate the total number of mf. Additionally, embryogram analyses on the individual female worms was performed as described. […] The embryonic developmental stages (eggs, embryos, pre-mf and mf) were determined in two 10 μL aliquots using a compound microscope and hemocytometer. A minimum of 200 events were assessed from each female worm and at least 3 females were analyzed per animal from at least 3 animals per treatment group. The intra-uterine embryogram was expressed as the relative proportions of different stages of development: eggs, embryos, pre-mf, stretched mf and deformed embryos in the total number of events.
Worm burden, peritoneal mf counts, overnight mf sheds and qPCR data were analyzed using a Kruskal–Wallis test followed by Dunn’s multiple comparison. […] All statistical analyses were determined using Prism 8 version 8.2.0(272).

`Cc1ccc2c(ccc(/C=C/c3c(C)nn(-c4ccccc4)c3C)[n+]2C)c1.[I-]` [Analog 06, 2-[(E)-2-(3,5-dimethyl-1-phenyl-1H-pyrazol-4-yl)ethenyl]-1,6-dimethylquinolin-1-ium iodide] was tested, and the “Deformed embryos in gonads of female worms (embryogram) vs vehicle” value was “statistically significant increase in the number of deformed embryos” and the “Mf released by female worms after 24 h ex vivo (overnight shed) vs vehicle” value was “significantly lower numbers of mf; also recorded: significantly reduced”.
